Measured values from the supplement of paper PMC13380429.

How the values were obtained:
Conditions in all cases: 72 h
Caco-2 [1] = assay: cell viability relative to DMSO; higher = less toxic
Calu-3 [2] = assay: as above
HepG2 [3] = assay: as above
U2OS [4] = assay: as above
Vero E6 [5] = assay: as above
Caco-2 [6] = assay: relative viability EC50 (midpoint between 100% and the lowest measured viability); higher = less toxic
Calu-3 [7] = assay: as above
HepG2 [8] = assay: as above
U2OS [9] = assay: as above
Vero E6 [10] = assay: as above
Caco-2 [11] = assay: drug sensitivity score (DSS) for viability; higher = more toxic; extreme values may be limits of the assay
Calu-3 [12] = assay: as above
HepG2 [13] = assay: as above
U2OS [14] = assay: as above
Vero E6 [15] = assay: as above

Row | SMILES | cell viability (Caco-2 [1]; 1 nM) [%] | cell viability (Caco-2 [1]; 10 nM) [%] | cell viability (Caco-2 [1]; 100 nM) [%] | cell viability (Caco-2 [1]; 1000 nM) [%] | cell viability (Caco-2 [1]; 10000 nM) [%] | cell viability (Calu-3 [2]; 1 nM) [%] | cell viability (Calu-3 [2]; 10 nM) [%] | cell viability (Calu-3 [2]; 100 nM) [%] | cell viability (Calu-3 [2]; 1000 nM) [%] | cell viability (Calu-3 [2]; 10000 nM) [%] | cell viability (HepG2 [3]; 1 nM) [%] | cell viability (HepG2 [3]; 10 nM) [%] | cell viability (HepG2 [3]; 100 nM) [%] | cell viability (HepG2 [3]; 1000 nM) [%] | cell viability (HepG2 [3]; 10000 nM) [%] | cell viability (U2OS [4]; 1 nM) [%] | cell viability (U2OS [4]; 10 nM) [%] | cell viability (U2OS [4]; 100 nM) [%] | cell viability (U2OS [4]; 1000 nM) [%] | cell viability (U2OS [4]; 10000 nM) [%] | cell viability (Vero E6 [5]; 1 nM) [%] | cell viability (Vero E6 [5]; 10 nM) [%] | cell viability (Vero E6 [5]; 100 nM) [%] | cell viability (Vero E6 [5]; 1000 nM) [%] | cell viability (Vero E6 [5]; 10000 nM) [%] | relative viability EC50 (Caco-2 [6]) [µM] | relative viability EC50 (Calu-3 [7]) [µM] | relative viability EC50 (HepG2 [8]) [µM] | relative viability EC50 (U2OS [9]) [µM] | relative viability EC50 (Vero E6 [10]) [µM] | drug sensitivity score (Caco-2 [11]) | drug sensitivity score (Calu-3 [12]) | drug sensitivity score (HepG2 [13]) | drug sensitivity score (U2OS [14]) | drug sensitivity score (Vero E6 [15])
1 | CCCC(=O)N1CCCN(c2nc(N)c3cc(OC)c(OC)cc3n2)CC1 [bunazosin] | 108 | 96.4 | 101 | 101 | 99.7 | 102 | 101 | 105 | 92 | 115 | 94.7 | 99.3 | 103 | 94.3 | 99.3 | 95.4 | 103 | 101 | 96.7 | 98.2 | 104 | 105 | 102 | 99.3 | 97.3 | > 10 | > 10 | > 10 | > 10 | > 10 | 0 | 0 | 0 | 0 | 0
2 | O=C(O)/C=C/c1ccc(O)c(O)c1 [caffeic-acid] | 89 | 92.8 | 90.9 | 94.7 | 108 | 93.1 | 111 | 109 | 95 | 102 | 101 | 104 | 106 | 97.5 | 105 | 94 | 100 | 95.9 | 100 | 105 | 99.1 | 96.7 | 102 | 94.1 | 104 | > 10 | > 10 | > 10 | > 10 | > 10 | 0 | 0 | 0 | 0 | 0
3 | C[C@]12CCC(=O)C=C1C=C[C@@H]1[C@@H]2CC[C@@]2(C)[C@H]1CC[C@@]21CCC(=O)O1 [canrenone] | 96.6 | 100 | 88.4 | 99.1 | 91.7 | 102 | 111 | 98.5 | 104 | 95 | 106 | 94.5 | 89.1 | 95.4 | 97.5 | 101 | 101 | 93.2 | 106 | 95.8 | 99.3 | 106 | 101 | 104 | 101 | > 10 | > 10 | > 10 | > 10 | > 10 | 0 | 0 | 0 | 0 | 0
4 | N[C@@H](C(=O)N[C@@H]1C(=O)N2C(C(=O)O)=C(Cl)CS[C@H]12)c1ccccc1 [cefaclor] | 94.7 | 98 | 88.9 | 97.1 | 92.6 | 97.1 | 99 | 102 | 102 | 98.5 | 96.4 | 102 | 100 | 104 | 98.5 | 101 | 103 | 99.3 | 98 | 98.2 | 97 | 98.3 | 101 | 95.8 | 94.7 | > 10 | > 10 | > 10 | > 10 | > 10 | 0 | 0 | 0 | 0 | 0
5 | OC[C@@H](O)[C@H]1O[C@@H]2O[C@H](C(Cl)(Cl)Cl)O[C@@H]2[C@H]1O [chloralose] | 101 | 103 | 80.5 | 101 | 87.4 | 93.7 | 93.8 | 95.5 | 104 | 98.8 | 98.1 | 103 | 102 | 98.9 | 89.2 | 98.1 | 106 | 98.5 | 99.6 | 98.4 | 98.1 | 99 | 98.8 | 95.9 | 97.8 | > 10 | > 10 | > 10 | > 10 | > 10 | 0 | 0 | 0 | 0 | 0
6 | CC(C)NCC(O)c1ccc(N)c(C#N)c1 (stereo not given) [cimaterol] | 96 | 93.2 | 94.2 | 89.8 | 102 | 102 | 93.2 | 101 | 99.2 | 96.6 | 110 | 91.6 | 96.6 | 91.7 | 94.1 | 100 | 99.4 | 106 | 97 | 105 | 105 | 104 | 96.6 | 103 | 99.2 | > 10 | > 10 | > 10 | > 10 | > 10 | 0 | 0 | 0 | 0 | 0
7 | Clc1ccc(C(OCCN2CCCCC2)c2ccccc2)cc1 (stereo not given) [cloperastine] | 99 | 94.9 | 114 | 116 | 79.9 | 101 | 93.5 | 129 | 100 | 100 | 111 | 109 | 115 | 96.4 | 84.1 | 99.4 | 96.7 | 97.1 | 99.6 | 95.4 | 93.7 | 96.4 | 100 | 97 | 86.6 | > 10 | > 10 | > 10 | > 10 | > 10 | 0.3 | 0 | 0.6 | 0 | 0.3
